Laboratory results: the NIST ThermoML archive (doi:10.1021/je800048f)
± gives the expanded uncertainty stated by the source.

Settings: 298.15 K, 101.33 kPa, Liquid; for viscosity: Capillary tube (Ostwald / Ubbelohde) method

SMILES | mass density [kg/m3] | viscosity [mPa·s]
CCCCCl [1-chlorobutane] | 880.69 ± 0.61 | 0.4235 ± 0.0054
CC(C)CO [2-methyl-1-propanol] | 797.77 ± 0.62 | 3.353 ± 0.027
CC(C)(C)O [2-methylpropan-2-ol] | 780.78 ± 0.65 | 4.384 ± 0.038
CCCCCC [hexane] | 655.07 ± 0.98 | 0.2949 ± 0.0048
